Data set [1] deals with Folsomia candida. The following applies: chronic/long-term; duration: 28 days; reproduction.
Data set [2] has as its system Anas platyrhynchos. Conditions: acute; oral; unspecified; mortality.
Data set [3] has as its system Colinus virginianus.
The subject of data set [4] is Coturnix japonica. Conditions: acute; oral; mortality.
In data set [5] the test system is Plant. The following applies: chronic/long-term; duration: 6 weeks.
In data set [6] the test system is Salmo trutta ssp. fario. The following applies: chronic/long-term; duration: 28 days; growth.
Data set [7] has as its system Canidae. Conditions: chronic; duration: 1 years; oral; Dog Other; body weight.
For data set [8], the system named is Apis mellifera. The following applies: acute, mortality.
In data set [9] the test system is Rattus norvegicus.
The subject of data set [10] is Oncorhynchus mykiss. Conditions: acute; duration: 96 hours; mortality.
The test system of data set [11] is Typhlodromus pyri. Description: LR50; higher = less toxic. The following applies: not reported; mortality.

Experimental findings from EPA's ToxValDB 9.5 (doi:10.2903/j.efsa.2016.4453) are described below.

Where “and” joins values, the source holds several entries; their conditions need not be identical. Equal entries are not always repeated. Some results are limits rather than exact numbers.

As usually defined, the NOAEL is the highest dose or exposure tested at which no adverse effect was seen. A word on the LC50: it is the concentration lethal to half of the exposed cells or organisms.

Turning to `COC(=O)c1ccc(I)cc1S(=O)(=O)[N-]C(=O)Nc1nc(C)nc(OC)n1.[Na+]` [Iodosulfuron methyl ester sodium salt], the NOEC in [1] worked out at 316 mg/kg; in data set [6], 7.79 mg/L. Besides, the LD50 was > 2000 mg/kg in [2]; > 2000 mg/kg in data set [3] (acute, oral, mortality); > 2000 mg/kg in data set [4]; > 100 µg/piece in data set [8] (duration: 48 hours, dermal); > 70 µg/piece in data set [8] (duration: 72 hours, oral, unspecified); 2680 mg/kg in data set [9] (acute, Wistar, mortality). The molecule also gave an NOEL in data set [3] (reproduction developmental, reproduction) of 78 mg/kg-day. Further, the NOAEC in data set [5] is 0.27 µg/L and 0.16 µg/L. Moreover, the NOAEL in data set [7] worked out at 7 mg/kg-day; in data set [9] (chronic, duration: 2 years, F, Wistar, body weight), 3.91 mg/kg-day; in data set [9] (chronic, duration: 2 years, M, Wistar, body weight) it was 2.96 mg/kg-day; in data set [9] (chronic, duration: 2 years, body weight) it was 3 mg/kg-day; in data set [9] (developmental, development) it was 315 mg/kg-day. In data set [10], this molecule had an LC50 of 0.684 µg/mL. In addition, the LR50 in data set [11] is > 30.3 g/ha.
